Results published in ChEMBL document CHEMBL5357005, “Discovery and Heterologous Production of Tetrapetalones Provide Insights into the Formation of the Tetracyclic System” (J Nat Prod, 2024).
Calls of active or inactive are those of the source.

What was measured:
SW480 = experiment: Cytotoxicity against human SW480 cells assessed as reduction in cell viability at 50 uM by sulfonyl rhodamine B colorimetry analysis; type: functional, cell-based
Staphylococcus aureus = experiment: Antimicrobial activity against Staphylococcus aureus ATCC 25923 assessed as reduction in microbial growth measured for 24 hrs by paper disc diffusion method; type: functional, organism-based
Salmonella typhimurium = experiment: Antimicrobial activity against Salmonella enterica subsp. enterica serovar Typhimurium assessed as reduction in microbial growth measured for 24 hrs by paper disc diffusion method; type: functional, organism-based
HCT-116 = experiment: Cytotoxicity against human HCT-116 cells assessed as reduction in cell viability at 50 uM by sulfonyl rhodamine B colorimetry analysis; type: functional, cell-based
Candida albicans = experiment: Antifungal activity against Candida albicans 5314 assessed as reduction in microbial growth measured for 48 hrs by paper disc diffusion method; type: functional, organism-based
Pseudomonas aeruginosa = experiment: Antimicrobial activity against Pseudomonas aeruginosa PA01 assessed as reduction in microbial growth measured for 24 hrs by paper disc diffusion method; type: functional, organism-based

Measured: Activity

CC1=C[C@@]2(C)C(O)=C(C)C(=O)N2C2=CC(=O)C=C3[C@@H](O)[C@H](C)[C@@H]1[C@]32O
inactive: SW480 | Staphylococcus aureus | Salmonella typhimurium | HCT-116 | Candida albicans | Pseudomonas aeruginosa

CC1=C[C@@]2(C)C(O)=C(C)C(=O)N2C2=CC(=O)C=C3[C@@H](O[C@H]4O[C@H](C)[C@@H](O)[C@H](O)[C@@H]4O)[C@H](C)[C@@H]1[C@]32O
inactive: SW480 | Staphylococcus aureus | Salmonella typhimurium | HCT-116 | Candida albicans | Pseudomonas aeruginosa

CC[C@@]12C=C(C)[C@@H]3[C@@H](C)[C@H](O[C@@H]4CC[C@H](O)[C@H](C)O4)C4=CC(=O)C=C(N1C(=O)C(C)=C2O)[C@@]43O
inactive: SW480 | Staphylococcus aureus | Salmonella typhimurium | HCT-116 | Candida albicans | Pseudomonas aeruginosa

CC1=C[C@@]2(CO)C(O)=C(C)C(=O)N2C2=CC(=O)C=C3[C@@H](O[C@@H]4CC[C@H](O)[C@H](C)O4)[C@H](C)[C@@H]1[C@]32O
inactive: SW480 | Staphylococcus aureus | Salmonella typhimurium | HCT-116 | Candida albicans | Pseudomonas aeruginosa

CC1=C[C@H]2C(O)=C(C)C(=O)N2C2=CC(=O)C=C3[C@@H](O[C@@H]4CC[C@H](O)[C@H](C)O4)[C@H](C)[C@@H]1[C@]32O
inactive: SW480 | Staphylococcus aureus | Salmonella typhimurium | HCT-116 | Candida albicans | Pseudomonas aeruginosa

CC[C@@]12C=C(C)[C@@H]3[C@@H](C)[C@H](O[C@H]4O[C@H](C)[C@@H](O)[C@H](O)[C@@H]4O)C4=CC(=O)C=C(N1C(=O)C(C)=C2O)[C@@]43O
inactive: SW480 | Staphylococcus aureus | Salmonella typhimurium | HCT-116 | Candida albicans | Pseudomonas aeruginosa

CC1=C[C@@]2(C)C(O)=C(C)C(=O)N2C2=CC(=O)C=C3[C@@H](O[C@@H]4CC[C@H](O)[C@H](C)O4)[C@H](C)[C@@H]1[C@]32O
inactive: SW480 | Staphylococcus aureus | Salmonella typhimurium | HCT-116 | Candida albicans | Pseudomonas aeruginosa

CC[C@@]12C=C(C)[C@@H]3[C@@H](C)[C@H](O)C4=CC(=O)C=C(N1C(=O)C(C)=C2O)[C@@]43O
inactive: SW480 | Staphylococcus aureus | Salmonella typhimurium | HCT-116 | Candida albicans | Pseudomonas aeruginosa
